pIC50: −log10 of the molar value.
Experiments:
p38α = molecular target: T1, p38α (Homo sapiens, UniProt Q16539); assay: In vitro enzyme assay, p38α isoform; assay type: biochemical; details: read-out: IC50 against p38α
T1 construct: c-myc (N); 6His (N); made in house; host or cells: E. coli (PET vectors)
Experimental: The ability of compounds of the invention to inhibit the enzyme p38 kinase was assessed. Activity of particular test compounds against each of the p38α and p38β isoforms of the enzyme was determined.
Human recombinant MKK6 (GenBank Accesion Number G1209672) was isolated from Image clone 45578 (Genomics, 1996, 33, 151) and utilised to produce protein in the form of a GST fusion protein in a pGEX vector using analogous procedures to those disclosed by J. Han et al., Journal of Biological Chemistry, 1996, 271, 2886-2891, p38α (GenBank Accession Number G529039) and p38β (GenBank Accession Number G1469305) were isolated by PCR amplification of human lymphoblastoid cDNA (GenBank Accession Number GM1416) and human foetal brain cDNA [synthesised from mRNA (Clontech, catalogue no. 6525-1) using a Gibco superscript cDNA synthesis kit] respectively using oligonucleotides designed for the 5′ and 3′ ends of the human p38α and p38β genes using analogous procedures to those described by J. Han et al., Biochimica et Biophysica Acta, 1995, 1265, 224-227 and Y. Jiang et al. Journal of Biological Chemistry 1996, 271, 17920-17926.
Both p38 protein isoforms were expressed in e coli in PET vectors. Human recombinant p38α and p38β isoforms were produced as 5′ c-myc, 6His tagged proteins. Both MKK6 and the p38 proteins were purified using standard protocols: the GST MKK6 was purified using a glutathione sepharose column and the p38 proteins were purified using nickel chelate columns.
The p38 enzymes were activated prior to use by incubation with MKK6 for 3 hours at 30° C. The unactivated coli-expressed MKK6 retained sufficient activity to fully activate both isoforms of p38. The activation incubate comprised p38α (10 μl of 10 mg/ml) or p38β (10 μl of 5 mg/ml) together with MKK6 (1 μl of 1 mg/ml), ‘Kinase buffer’ [100 μl; pH 7.4 buffer comprising Tris (50 mM), EGTA (0.1 mM), sodium orthovanadate (0.1 mM) and β-mercaptoethanol (0.1%)] and MgATP (30 μl of 50 mM Mg(OCOCH3)2 and 0.5 mM ATP). This produced enough activated p38 enzyme for 3 Microtiter plates.
Test compounds were solubilised in DMSO and 10 μl of a 1:10 diluted sample in ‘Kinase Buffer’ was added to a well in a Microtiter plate. For single dose testing, the compounds were tested at 10 μM. ‘Kinase Assay Mix’ [30 μl; comprising Myelin Basic Protein (Gibco BRL cat. no. 1322B-010; 1 ml of a 3.33 mg/ml solution in water), activated p38 enzyme (50 μl) and ‘Kinase Buffer’ (2 ml)] was then added followed by ‘Labelled ATP’ [10 μl; comprising 50 μM ATP, 0.1 μCi ^33P ATP (Amersham International cat. no. BF1000) and 50 mM Mg(OCOCH3)2]. The plates were incubated at room temperature with gentle agitation. Plates containing p38α were incubated for 90 min and plates containing p38β were incubated for 45 min. Incubation was stopped by the addition of 50 μl of 20% trichloroacetic acid (TCA). The precipitated protein was phosphorylated by p38 kinase and test compounds were assessed for their ability to inhibit this phosphorylation. The plates were filtered using a Canberra Packard Unifilter and washed with 2% TCA, dried overnight and counted on a Top Count scintillation counter.
(§1) Test compounds were tested initially at a single dose and active compounds were retested to allow IC50 values to be determined.

[1] = system: TNFα production by human peripheral blood mononuclear cells; assay: PBMC test: TNFα production after lipopolysaccharide stimulation; assay type: cell-based; details: LPS-stimulated TNFα production
Experimental: The ability of compounds of this invention to inhibit TNFα production was assessed by using human peripheral blood mononuclear cells which synthesise and secrete TNFα when stimulated with lipopolysaccharide.
Peripheral blood mononuclear cells (PBMC) were isolated from heparinised (10 units/ml heparin) human blood by density centrifugation (Lymphoprep™; Nycomed). Mononuclear cells were resuspended in culture medium [RPMI 1640 medium (Gibco) supplemented with 50 units/ml penicillin, 50 μg/ml streptomycin, 2 mM glutamine and 1% heat-inactivated human AB serum (Sigma H-1513)]. Compounds were solubilised in DMSO at a concentration of 50 mM, diluted 1:100 in culture medium and subsequently serial dilutions were made in culture medium containing 1% DMSO. PBMCs (2.4×10^5 cells in 160 μl culture medium) were incubated with 20 μl of varying concentrations of test compound (triplicate cultures) or 20 μl culture medium containing 1% DMSO (control wells) for 30 minutes at 37° C. in a humidified (5%CO2/95% air) incubator (Falcon 3072; 96 well flat-bottom tissue culture plates). 20 μl lipopolysaccharide [LPS E.Coli 0111:B4 (Sigma L-4130), final concentration 10 μg/ml] solubilised in culture medium was added to appropriate 30 wells. 20 μl culture medium was added to “medium alone” control wells. Six “LPS alone” and four “medium alone” controls were included on each 96 well plate. Varying concentrations of a known TNFα inhibitor were included in each test, i.e. an inhibitor of the PDE Type IV enzyme (for example see Semmler, J. Wachtel. H and Endres. S., Int. J. Immunopharmac. (1993), 15(3), 409-413) or an inhibitor of proTNFα convertase (for example, see McGeehan, G. M. et al. Nature (1994) 370, 558-561). Plates were incubated for 7 hours at 37° C. (humidified incubator) after which 100 μl of the supernatant was removed from each well and stored at −70° C. (96 well round-bottom plates; Corning 25850). TNFα levels were determined in each sample using a human TNFα ELISA (see WO92/10190 and Current Protocols in Molecular Biology, vol 2 by Frederick M. Ausbel et al., John Wiley and Sons Inc.). [formula]

p38 kinase = assay: In vitro enzyme assay, p38 kinase (isoform not specified, or p38α and/or p38β); assay type: biochemical, human; details: result in words
Experimental: The ability of compounds of the invention to inhibit the enzyme p38 kinase was assessed. Activity of particular test compounds against each of the p38α and p38β isoforms of the enzyme was determined. […]
Test compounds were solubilised in DMSO and 10 μl of a 1:10 diluted sample in ‘Kinase Buffer’ was added to a well in a Microtiter plate. […] The precipitated protein was phosphorylated by p38 kinase and test compounds were assessed for their ability to inhibit this phosphorylation. The plates were filtered using a Canberra Packard Unifilter and washed with 2% TCA, dried overnight and counted on a Top Count scintillation counter.
as §1

T1 sequence (Q16539 whole entry, canonical isoform): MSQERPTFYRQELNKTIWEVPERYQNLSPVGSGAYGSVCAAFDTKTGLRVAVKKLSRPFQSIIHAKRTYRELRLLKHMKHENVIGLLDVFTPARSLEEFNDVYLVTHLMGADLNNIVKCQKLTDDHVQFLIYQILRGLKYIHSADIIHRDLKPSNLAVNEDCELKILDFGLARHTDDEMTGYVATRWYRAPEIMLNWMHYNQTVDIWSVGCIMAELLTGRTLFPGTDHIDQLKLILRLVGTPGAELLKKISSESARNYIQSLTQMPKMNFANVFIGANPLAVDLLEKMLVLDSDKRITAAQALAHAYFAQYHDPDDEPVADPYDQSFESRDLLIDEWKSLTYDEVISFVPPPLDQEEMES

For `Cc1ccc(NC(=O)c2ccc(C#N)cc2)cc1NC(=O)c1ccc(O)cc1` [Example 4, N-[5-(4-Cyanobenzamido)-2-methylphenyl]-4-hydroxybenzamide], the melting point was 297 to 299 °C.
Work on `COc1ccc(C(=O)Nc2cc(NC(=O)c3cccc(Br)c3)ccc2C)cc1OC` [Example 6, N-[5-(3-bromobenzamido)-2-methylphenyl]-3,4-dimethoxybenzamide] yielded a melting point of 136 to 138 °C.
`COc1ccc(C(=O)Nc2cc(NC(=O)c3cccc(N(C)C)c3)ccc2C)cc1OC` [Example 9, Compound No. 7, N-[5-(3-dimethylaminobenzamido)-2-methylphenyl]-3,4-dimethoxybenzamide] gave a pIC50 (p38α) of roughly 6.70 and a pIC50 [1] of roughly 5.15.
`Cc1ccc(NC(=O)c2c(F)cccc2Cl)cc1NC(=O)c1ccc(O)cc1` [Example 9, Compound No. 12] gave a pIC50 (p38α) of roughly 5.77 and a pIC50 [1] of roughly 4.66.
Work on `Cc1ccc(NC(=O)c2cccc(N3CCOCC3)c2)cc1NC(=O)c1cccc(N2CCOCC2)c1` [Example 9, Compound No. 50, N-[2-methyl-5-(3-morpholinobenzamido)phenyl]-3-morpholinobenzamide] yielded a pIC50 (p38α) of roughly 7.40 and a pIC50 [1] of roughly 5.82.
`Cc1ccc(NC(=O)c2ccccc2)cc1NC(=O)c1cccc(CN2CCN(C)CC2)c1` [Example 9, Compound No. 51, N-(5-benzamido-2-methylphenyl)-3-(4-methylpiperazin-1-yl)methylbenzamide] gave a pIC50 (p38α) of roughly 6.15 and a pIC50 [1] of roughly 5.52.
`COc1ccc(C(=O)Nc2cc(NC(=O)c3ccc(O)cc3)ccc2C)cc1OC` [Example 10, N-[5-(4-hydroxybenzamido)-2-methylphenyl]-3,4-dimethoxybenzamide] gave a melting point of 258 to 259 °C.
With `COc1ccc(C(=O)Nc2cc(NC(=O)c3cccc(O)c3)ccc2C)cc1OC` [Example 11, N-[5-(3-hydroxybenzamido)-2-methylphenyl]-3,4-dimethoxybenzamide] the melting point was 182 to 183 °C.
`COc1ccc(C(=O)Nc2cc(NC(=O)c3cccc(N)c3)ccc2C)cc1OC` [Example 13, N-[5-(3-aminobenzamido)-2-methylphenyl]-3,4-dimethoxybenzamide] gave a pIC50 (p38α) of roughly 6.15, a pIC50 [1] of roughly 5.15 and a melting point of 179 to 180 °C.
With `Cc1ccc(NC(=O)c2cccc(N(C)C)c2)cc1NC(=O)c1ccccc1O` [Example 30, N-[5-(3-dimethylaminobenzamido)-2-methylphenyl]-2-hydroxybenzamide] the melting point was 234 to 238 °C.
`COc1ccc(C(=O)Nc2cc(NC(=O)c3cccc(NC(C)=O)c3)ccc2C)cc1OC` [Example 33, N-[5-(3-acetamidobenzamido)-2-methylphenyl]-3,4-dimethoxybenzamide] gave a melting point of 187 to 188 °C.
With `Cc1ccc(NC(=O)c2cccc(N(C)C)c2)cc1NC(=O)c1ccc(O)cc1` [N-[5-(3-Dimethylaminobenzamido)-2-methylphenyl]-4-hydroxybenzamide] the “p38 kinase inhibitory activity” value (p38 kinase) was “possess p38 kinase inhibitory activity”.
Work on `Cc1ccc(NC(=O)CCC2CCCCC2)cc1NC(=O)c1ccc(O)cc1` [N-[5-(3-cyclohexylpropionamido)-2-methylphenyl]-4-hydroxybenzamide] yielded a pIC50 (p38α) of roughly 6.40 and a pIC50 [1] of roughly 5.15.
`Cc1ccc(NC(=O)CCC2CCCC2)cc1NC(=O)c1ccc(O)cc1` [N-[5-(3-cyclopentylpropionamido)-2-methylphenyl]-4-hydroxybenzamide] gave a pIC50 (p38α) of roughly 5.22.
For `Cc1ccc(NC(=O)CCCC2CCCCC2)cc1NC(=O)c1ccc(O)cc1` [N-[5-(4-Cyclohexylbutyrylamino)-2-methylphenyl]-4-hydroxybenzamide], the melting point was 159 to 160 °C.
